Several values for one entry are separate records, joined by “and”; a condition that tells them apart may be missing. Equal entries are not always repeated.
What was measured:
[1] = system: four cancer cell lines (A-549, MCF-7, Panc-1, HT-29); test: Antiproliferative assay, average over four cancer cell lines; assay type: cell-based; conditions: Homo sapiens; average of the four cancer cell lines; read-out: Average IC50 (GI50)
Description: Table 2 presents the four cancer cell lines’ median inhibitory concentration (IC50) and GI50 (average IC50) values.
The IC50 values were derived from dose-response tests. The reported data are derived from at least two independent studies, each comprising three replicates per concentration. See Supplementary Material A1 for more details.

HT-29 = test: Antiproliferative assay (MTT); assay type: cell-based; conditions: Homo sapiens, HT-29 (colon), read-out: Antiproliferative activity IC50 ± SEM, HT-29
In short: (§1)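 MTT assay on tumour cell lines, compound in 0.1% DMSO final, 96 h at 37 °C. MTT at 0.4 mg/mL for 3 h, then DMSO solubilisation and absorbance at 540 nm. IC50 from dose-response, at least two independent runs in triplicate.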

A-549 = test: Antiproliferative assay (MTT); assay type: cell-based; conditions: Homo sapiens, A549, A-549 (lung), read-out: Antiproliferative activity IC50 ± SEM, A-549
In short: as §1

[2] = Experimental lipophilicity by RP-TLC; assay type: physicochemical; conditions: for Experimental lipophilicity Co: concentration of MeOH at RM = 0, in % (unit assumed)
Description: The RP-TLC method was used to measure the lipophilicity parameters (RMo, b, and Co) described in the experimental section. The mobile phase consisted of different proportions of water and organic modifier (MeOH). RF and RM values were obtained for each ratio of organic modifier/water system (Supplementary Table S3), and a linear regression analysis was achieved to obtain the lipophilicity chromatographic descriptors (RMo, b, and Co, see Table 6). Relative lipophilicity (RMo) describes the partitioning of the solute between pure water and nonpolar stationary phase. In contrast, the second lipophilicity parameter (Co) represents the concentration of organic modifier in the mobile phase in which the solute is equally distributed between two phases (i.e., RM = 0, and Rf = 0.5). Also, Co is known to be widely used in QSAR analysis as it embraces both the specific hydrophobic surface area of the solute and RMo. […] Finally, the slope of the regression line (b) was used as a descriptor of the specific hydrophobic surface area of the compound. In a series of structurally related compounds, b is linearly correlated with RMo, resulting in a linear relationship that is the basic feature of the chromatographic determination of lipophilicity. […] Moreover, substituents affected tested compounds’ measured lipophilicity parameter (RMo) values. Higher RMo values were found with lipophilic derivatives containing the benzyl group (14, 22, and 28), while lower RMo values were found with derivatives containing alkyl or allyl groups (19, 26, and 27). An interesting contradiction was found with experimental lipophilicity value of 28 and its congener 14, where compound 28 was found more lipophilic than its congener 14 even though it contains two methoxy groups and according to ChemDraw® and MolSoft® programs, derivative 14 should be more lipophilic while the MOE® program expects values matching our findings. […] Also, S-allyl derivatives were nearly equipotent to S-alkyl congeners as antiproliferative agents but quite different in terms of lipophilicity.

EGFR = biological target: T1, EGFR (Homo sapiens, UniProt P00533); test: EGFR-TK inhibitory assay; assay type: biochemical; conditions: read-out: EGFR inhibition IC50 ± SEM
T1 construct: amino acids 645–1186; His6 (N); made in house; host or cells: Sf-9 insect cells (baculovirus; pBlueBacHis2B / pFASTBacHTc)

A-549 cancer cells = test: Wound healing assay (migration, wound closure); assay type: cell-based, human; conditions: A-549 cells
Description: Wound healing assay is a simple, reproducible, and non-expensive method to study cancer cell migration in vitro ([Rodriguez et al., 2005]). We investigated the wound-healing activities of compounds 22 and 29 in A-549 cancer cells. […] Furthermore, the wound closure percentage achieved 100% after 72 h of treatment with a compound 22, whereas it reached only 80% with a compound 29.

VEGFR-2 = VEGFR-2 (Homo sapiens, UniProt P35968); test: VEGFR-2 inhibitory assay
Chain of VEGFR-2 (P35968 20-1356): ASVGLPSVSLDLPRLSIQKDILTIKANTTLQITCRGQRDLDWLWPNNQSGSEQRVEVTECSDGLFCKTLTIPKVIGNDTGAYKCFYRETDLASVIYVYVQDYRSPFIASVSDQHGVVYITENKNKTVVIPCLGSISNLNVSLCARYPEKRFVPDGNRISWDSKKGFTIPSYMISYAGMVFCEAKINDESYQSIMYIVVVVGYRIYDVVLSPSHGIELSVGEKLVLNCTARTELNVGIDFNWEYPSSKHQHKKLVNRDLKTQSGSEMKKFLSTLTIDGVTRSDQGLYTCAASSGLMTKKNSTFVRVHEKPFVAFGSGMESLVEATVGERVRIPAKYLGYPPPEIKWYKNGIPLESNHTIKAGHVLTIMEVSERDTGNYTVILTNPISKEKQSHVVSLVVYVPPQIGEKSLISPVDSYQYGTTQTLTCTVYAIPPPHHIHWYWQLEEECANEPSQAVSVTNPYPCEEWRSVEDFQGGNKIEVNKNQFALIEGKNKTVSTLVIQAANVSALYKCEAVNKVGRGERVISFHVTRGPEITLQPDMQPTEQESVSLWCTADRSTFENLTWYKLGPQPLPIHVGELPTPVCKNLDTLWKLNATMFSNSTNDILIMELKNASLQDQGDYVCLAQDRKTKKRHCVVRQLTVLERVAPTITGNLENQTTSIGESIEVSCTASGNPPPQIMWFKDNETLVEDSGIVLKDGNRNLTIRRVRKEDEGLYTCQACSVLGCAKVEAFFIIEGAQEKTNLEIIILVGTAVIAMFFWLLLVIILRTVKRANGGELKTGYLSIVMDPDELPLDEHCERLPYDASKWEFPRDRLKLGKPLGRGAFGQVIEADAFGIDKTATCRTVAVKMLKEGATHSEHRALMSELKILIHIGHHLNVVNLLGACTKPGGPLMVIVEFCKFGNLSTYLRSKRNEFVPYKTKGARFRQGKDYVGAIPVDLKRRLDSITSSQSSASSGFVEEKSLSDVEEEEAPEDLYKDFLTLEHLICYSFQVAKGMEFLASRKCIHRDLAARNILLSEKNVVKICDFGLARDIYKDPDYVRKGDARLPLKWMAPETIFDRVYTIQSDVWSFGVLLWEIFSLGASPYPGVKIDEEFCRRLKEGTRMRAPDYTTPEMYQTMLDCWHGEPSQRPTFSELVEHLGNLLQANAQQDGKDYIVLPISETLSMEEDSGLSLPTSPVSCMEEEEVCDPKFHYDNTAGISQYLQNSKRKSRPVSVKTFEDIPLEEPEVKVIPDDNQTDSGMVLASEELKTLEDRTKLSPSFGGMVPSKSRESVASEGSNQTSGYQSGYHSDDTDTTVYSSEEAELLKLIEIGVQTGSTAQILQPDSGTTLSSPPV

T1 sequence (P00533 669-1210): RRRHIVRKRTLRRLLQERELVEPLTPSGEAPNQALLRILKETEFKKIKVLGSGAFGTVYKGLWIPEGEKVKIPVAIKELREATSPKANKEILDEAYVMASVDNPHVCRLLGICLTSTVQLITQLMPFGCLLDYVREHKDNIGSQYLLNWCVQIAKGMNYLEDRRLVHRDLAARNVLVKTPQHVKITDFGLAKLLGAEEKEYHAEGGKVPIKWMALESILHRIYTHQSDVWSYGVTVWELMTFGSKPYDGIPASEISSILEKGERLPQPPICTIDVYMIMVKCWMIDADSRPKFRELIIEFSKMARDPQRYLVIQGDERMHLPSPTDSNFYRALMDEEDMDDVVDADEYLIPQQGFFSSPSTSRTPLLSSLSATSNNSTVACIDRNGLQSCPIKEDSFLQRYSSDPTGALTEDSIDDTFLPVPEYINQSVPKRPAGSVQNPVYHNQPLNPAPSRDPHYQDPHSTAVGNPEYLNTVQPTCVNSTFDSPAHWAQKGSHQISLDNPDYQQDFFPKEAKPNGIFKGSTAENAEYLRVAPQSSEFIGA

Row | Structure (SMILES) | IC50 [1] [nM] | IC50 (HT-29) [nM] | IC50 (A-549) [nM] | Experimental lipophilicity RMo ([2]; MeOH/water mobile phase) | Experimental lipophilicity Co [2] | IC50 (EGFR) [nM] | Wound closure % 24 h (A-549 cancer cells) [%] | Wound closure % 48 h (A-549 cancer cells) [%] | Wound closure % 72 h (A-549 cancer cells) [%] | IC50 (VEGFR-2) [nM] | Experimental lipophilicity b (slope) ([2]; MeOH/water mobile phase)
1 | COc1ccc(-c2cc(-c3ccc(Cl)cc3)nc(SC)n2)cc1 [Compound 9, 4-(4-Chlorophenyl)-6-(4-methoxyphenyl)-2-(methylthio)pyrimidine] | 62 | 62 ± 6 | 60 ± 5 |  |  |  |  |  |  |  | 
2 | CCSc1nc(-c2ccc(Cl)cc2)cc(-c2ccc(OC)c(OC)c2)n1 [Compound 24, 4-(4-Chlorophenyl)-2-(ethylthio)-6-(3,4-dimethoxyphenyl)pyrimidine] | 31 | 31 ± 3 | 30 ± 3 |  |  |  |  |  |  |  | 
3 | COc1ccc(-c2cc(-c3ccc(Cl)cc3)nc(SCc3ccccc3)n2)cc1OC [Compound 28, 2-(Benzylthio)-4-(4-chlorophenyl)-6-(3,4-dimethoxyphenyl)pyrimidine] | 41 | 41 ± 3 | 39 ± 3 | 5.32 | 91.4199 and 87.18 |  |  |  |  |  | 
4 | COc1ccc(CSc2nc(-c3ccc(Cl)cc3)cc(-c3ccc(OC)c(OC)c3)n2)cc1 [Compound 29, 2-(4-Methoxybenzylthio)-4-(4-chlorophenyl)-6-(3,4-dimethoxyphenyl)pyrimidine] | 24 | 24 ± 2 | 23 ± 2 |  |  | 72 ± 5 | 11 | 34 | 80 | 1.6 ± 0.01 | 
5 | C=CCSc1nc(-c2ccc(OC)cc2)cc(-c2cccc(OC)c2)n1 [Compound 20, 2-(Allylthio)-6-(3-methoxyphenyl)-4-(4-methoxyphenyl)pyrimidine] | 71 | 72 ± 4 | 70 ± 6 |  |  |  |  |  |  |  | 
6 | COc1ccc(-c2cc(-c3ccc(Cl)cc3)nc(SC)n2)cc1OC [Compound 23, 4-(4-Chlorophenyl)-6-(3,4-dimethoxyphenyl)-2-(methylthio)pyrimidine] | 48 | 48 ± 4 | 48 ± 4 |  |  |  |  |  |  |  | 
7 | COc1ccc(-c2cc(-c3ccc(Cl)cc3)nc(SC(C)C)n2)cc1OC [Compound 26, 4-(4-Chlorophenyl)-2-(isopropylthio)-6-(3,4-dimethoxyphenyl)pyrimidine] | 41 | 42 ± 3 | 40 ± 3 | 6.45 | 86.518 and 90.64 |  |  |  |  |  | 
8 | COc1ccc(CSc2nc(-c3ccc(OC)cc3)cc(-c3cccc(OC)c3)n2)cc1 [Compound 22, 2-(4-Methoxybenzylthio)-6-(3-methoxyphenyl)-4-(4-methoxyphenyl)pyrimidine] | 22 | 23 ± 2 | 21 ± 2 | 6.449 ± 0.05873 and 6.24 | 90.6598 and 87.7 |  | 25 | 50 | 100 | 1.15 ± 0.01 | 
9 | COc1ccc(-c2cc(-c3ccc(Cl)cc3)nc(SC(C)C)n2)cc1 [Compound 12, 4-(4-Chlorophenyl)-2-(isopropylthio)-6-(4-methoxyphenyl)pyrimidine] | 36 | 36 ± 3 | 35 ± 3 |  |  |  |  |  |  |  | 
10 | COc1ccc(-c2cc(-c3ccc(Cl)cc3)nc(SCc3ccccc3)n2)cc1 [Compound 14, 2-(Benzylthio)-4-(4-chlorophenyl)-6-(4-methoxyphenyl)pyrimidine] | 29 | 28 ± 2 | 28 ± 2 | 7.024 ± 0.05913 | 91.3417 | 90 ± 7 |  |  |  | 2.2 ± 0.02 | -0.074 ± 0.00066
11 | C=CCSc1nc(-c2ccc(Cl)cc2)cc(-c2ccc(OC)cc2)n1 [Compound 13, 2-(Allylthio)-4-(4-chlorophenyl)-6-(4-methoxyphenyl)pyrimidine] | 66 | 64 ± 6 | 64 ± 6 |  |  |  |  |  |  |  | 
12 | COc1ccc(-c2cc(-c3cccc(OC)c3)nc(SC(C)C)n2)cc1 [Compound 19, 2-(Isopropylthio)-6-(3-methoxyphenyl)-4-(4-methoxyphenyl)pyrimidine] | 30 | 30 ± 2 | 29 ± 2 | 7.02 | 87.6579 and 91.32 | 83 ± 6 |  |  |  | 2.7 ± 0.02 | 
13 | CCCSc1nc(-c2ccc(Cl)cc2)cc(-c2ccc(OC)c(OC)c2)n1 [Compound 25, 4-(4-Chlorophenyl)-6-(3,4-dimethoxyphenyl)-2-(propylthio)pyrimidine] | 33 | 32 ± 3 | 32 ± 3 |  |  | 78 ± 5 |  |  |  | 2.95 ± 0.02 | 
14 | CCCSc1nc(-c2ccc(Cl)cc2)cc(-c2ccc(OC)cc2)n1 [Compound 11, 4-(4-Chlorophenyl)-6-(4-methoxyphenyl)-2-(propylthio)pyrimidine] | 54 | 53 ± 5 | 52 ± 5 |  |  |  |  |  |  |  | 
15 | COc1ccc(CSc2nc(-c3ccc(Cl)cc3)cc(-c3ccc(OC)cc3)n2)cc1 [Compound 15, 2-(4-Methoxybenzylthio)-4-(4-chlorophenyl)-6-(4-methoxyphenyl)pyrimidine] | 80 | 80 ± 7 | 79 ± 7 |  |  |  |  |  |  |  | 
16 | COc1ccc(-c2cc(-c3cccc(OC)c3)nc(SC)n2)cc1 [Compound 16, 6-(3-Methoxyphenyl)-4-(4-methoxyphenyl)-2-(methylthio)pyrimidine] | 86 | 85 ± 8 | 86 ± 7 |  |  |  |  |  |  |  | 
17 | C=CCSc1nc(-c2ccc(Cl)cc2)cc(-c2ccc(OC)c(OC)c2)n1 [Compound 27, 2-(Allylthio)-4-(4-chlorophenyl)-6-(3,4-dimethoxyphenyl)pyrimidine] | 59 | 60 ± 6 | 56 ± 5 | 5.79 | 87.9561 and 86.52 |  |  |  |  |  | 
18 | CCSc1nc(-c2ccc(Cl)cc2)cc(-c2ccc(OC)cc2)n1 [Compound 10, 4-(4-Chlorophenyl)-2-(ethylthio)-6-(4-methoxyphenyl)pyrimidine] | 76 | 74 ± 7 | 75 ± 7 |  |  |  |  |  |  |  | 
19 | CCSc1nc(-c2ccc(OC)cc2)cc(-c2cccc(OC)c2)n1 [Compound 17, 2-(Ethylthio)-6-(3-methoxyphenyl)-4-(4-methoxyphenyl)pyrimidine] | 29 | 29 ± 2 | 28 ± 2 |  |  | 87 ± 6 |  |  |  | 1.85 ± 0.01 | 
20 | CCCSc1nc(-c2ccc(OC)cc2)cc(-c2cccc(OC)c2)n1 [Compound 18, 6-(3-Methoxyphenyl)-4-(4-methoxyphenyl)-2-(propylthio)pyrimidine] | 45 | 46 ± 4 | 45 ± 4 |  |  |  |  |  |  |  | 

Reference: publication PMC11576293, “New series of 4,6-diaryl pyrimidines: facile synthesis and antiproliferative activity as dual EGFR/VEGFR-2 inhibitors” (Frontiers in Chemistry, 2024)
